Laboratory results taken from patent US9078872B2, “Antioxidant composition” (Symrise AG, priority 2013, dated 2015).

Experiment: ORAC (OARC-fluorescein) determination of the antioxidant effect, Trolox as standard
Details: OARC-fluorescein method; calibration curve with Trolox as standard
Procedure: The antioxidant effect and the synergy between the individual components were determined according to the OARC-fluorescein method, in which inhibition time and the inhibition degree are reflected in a measured value. The measurements were performed by means of the device Synergy H4 by BioTek Inc., the calculated values were taken from a calibration curve with Trolox used as a standard. The method is described in more detail, for example, in the publications by Prior et. al., J. Agric Food. Chem. 50, pp. 4437-4444 […] and Dovalos et. al, ibid 52, pp. […] (2004). These publications are incorporated into this patent application by reference with regard to the description of the measuring method.

| Compound | ORAC value, Measured |
| --- | --- |
| O=C(O)/C=C/c1ccc(O)c(O)c1 [Example V1, Caffeic acid] | 21.587 |
| COc1cc(C=CC(=O)O)cc(OC)c1O (stereo in doubt) [Example V2, Sinapinic acid] | 11.459 |
